From ChEMBL document CHEMBL1158975, “An antiviral sesquiterpene hydroquinone from the marine sponge Strongylophora hartmani” (J Nat Prod, 1991)
Values after ≈ are worked out from the molar mass of the structure shown.

Legend:
[1] = test system: P388; assay: Cytotoxicity against mouse P388 cells by microculture tetrazolium assay; assay type: functional, cell-based
[2] = test system: Influenza A virus; assay: Antiviral activity against influenza virus A/Puerto Rico/8/34 H1N1 in MDCK cells assessed as reduction in virus-induced cytopathic effect after 3 days by neutral red uptake assay; assay type: functional, organism-based; details: A/Puerto Rico/8/1934(H1N1), 72 h
[3] = Therapeutic index, ratio of cytotoxicity against MDCK cells to IC50 for influenza virus A/Puerto Rico/8/34 H1N1; assay type: cell-based; details: dog, read-out: TI

Row | Compound | IC50 [1] | IC50 [2] | selectivity ratio [3]
1 | COc1ccc(OC(C)=O)c2c1C[C@]1(C)[C@@H](C)CC[C@H]3C(C)(C)CCC[C@]31O2 | 23.8 µg/mL (≈ 61.6 µM) | 5 µg/mL (≈ 12.9 µM) | 100
2 | COc1ccc(O)c2c1C[C@]1(C)[C@@H](C)CC[C@H]3C(C)(C)CCC[C@]31O2 [STRONGYLIN A] | 13 µg/mL (≈ 37.7 µM) | 6.5 µg/mL (≈ 18.9 µM) | 9
